# Test system: individuals diagnosed with schizophrenia
# Experiment: Change in PANSS-GP subscale by SNP genotype, patients on iloperidone 24 mg/day b.i.d. for 28 days (MMRM)
# Format: in vivo, human
# Description: Earlier studies investigated an association between a polymorphism in the CNTF gene and iloperidone efficacy as well as associations between CYP2D6 and KCNQ1 genotypes and changes in QT interval following the administration of iloperidone. The present study involved the genotyping of DNA samples collected from 426 individuals diagnosed with schizophrenia in an attempt to identify additional SNPs associated with iloperidone efficacy. Each sample was genotyped at more than 500,000 SNP loci using the GeneChip® Human Mapping 500K Array Set (Affymetrix, Santa Clara, Calif.) and using assays developed in-house. Approximately half of the participants in the study were administered 24 mg/day of iloperidone, b.i.d., for 28 days. About 25% of the patients were administered ziprasidone. The remaining participants were administered a placebo. Three analyses of the PANSS-T were conducted. 1) A two-step approach where samples were randomly split into 2 groups of iloperidone-treated patients used to discover SNPs associated with changed in PANSS-T (Discovery phase) and a second group to confirm the 100 most significant SNPs (Confirmatory phase). 2) A one-step approach using the Last Observation Carried Forward (LOCF) PANSS-T data of all iloperidone-treated patients. For each SNP, the most parsimonious genetic model (e.g., homozygous for one allele v. all other genotypes [i.e., AA v. AB and BB], heterozygous v. homozygous [i.e., AB v. AA and BB]) was established with respect to iloperidone efficacy using a one-way analysis of variance (ANOVA). 3) A Mixed-effects Model Repeated Measures (MMRM) analysis was subsequently conducted using the best genetic model of each SNP in the MMRM model. MMRM analyses were also conducted with the PANSS subscales PANSS-P, PANSS-N, and PANSS-GP. The SNPs with a statistically significant association in all 3 analyses of PANSS-T, as well as the best of each analysis were considered significant findings and are listed below in Table 1. Results for each of these SNPs with the PANSS-T scales and with the three subscales PANSS-P, PANSS-N, and PANSS-GP are shown in Tables 2, 3, 4, and 5, respectively. […] In the present case of iloperidone efficacy, it is likely that different markers are more specifically associated with one or a few specific clinical symptoms, which is reflected in the improvement measured in separate subscales.
structure (smiles),measurement,setting,value
"COc1cc(C(C)=O)ccc1OCCCN1CCC(c2noc3cc(F)ccc23)CC1 [iloperidone, 1-[4-[3-[4-(6-fluoro-1,2-benzisoxazol-3-yl)-1-piperidinyl]propoxy]-3-methoxyphenyl]ethanone]",mean of change in PANSS-GP,SNP_A-1819750 (CREG1) genotype A_A,−8.04
same,mean of change in PANSS-GP,SNP_A-1819750 (CREG1) genotype A_B* (lowest response),−4.58
same,mean of change in PANSS-GP,SNP_A-1819750 (CREG1) genotype B_B,−6.81
same,mean of change in PANSS-GP,SNP_A-1819750 (CREG1) genotype nonAB** (highest response),−7.21
same,mean of change in PANSS-GP,SNP_A-1860353 (RAP1B) genotype A_A** (highest response),−17.20
same,mean of change in PANSS-GP,SNP_A-1860353 (RAP1B) genotype A_B,−5.17
same,mean of change in PANSS-GP,SNP_A-1860353 (RAP1B) genotype B_B,−4.96
same,mean of change in PANSS-GP,SNP_A-1860353 (RAP1B) genotype nonAA* (lowest response),−5.00
same,mean of change in PANSS-GP,SNP_A-1934663 genotype A_A,−9.38
same,mean of change in PANSS-GP,SNP_A-1934663 genotype A_B,−8.80
same,mean of change in PANSS-GP,SNP_A-1934663 genotype B_B* (lowest response),−3.07
same,mean of change in PANSS-GP,SNP_A-1934663 genotype nonBB** (highest response),−8.92
same,mean of change in PANSS-GP,SNP_A-1973093 (KIAA0040) genotype A_A,−6.40
same,mean of change in PANSS-GP,SNP_A-1973093 (KIAA0040) genotype A_B* (lowest response),−1.92
same,mean of change in PANSS-GP,SNP_A-1973093 (KIAA0040) genotype B_B,−7.77
same,mean of change in PANSS-GP,SNP_A-1973093 (KIAA0040) genotype nonAB** (highest response),−7.51
same,mean of change in PANSS-GP,SNP_A-1975928 (SLC2A9) genotype A_A,−5.82
same,mean of change in PANSS-GP,SNP_A-1975928 (SLC2A9) genotype A_B,−5.39
same,mean of change in PANSS-GP,SNP_A-1975928 (SLC2A9) genotype B_B* (lowest response),9.62
same,mean of change in PANSS-GP,SNP_A-1975928 (SLC2A9) genotype nonBB** (highest response),−5.72
same,mean of change in PANSS-GP,SNP_A-1987915 (GPR126) genotype A_A,−4.63
same,mean of change in PANSS-GP,SNP_A-1987915 (GPR126) genotype A_B,−4.28
same,mean of change in PANSS-GP,SNP_A-1987915 (GPR126) genotype B_B** (highest response),−7.14
same,mean of change in PANSS-GP,SNP_A-1987915 (GPR126) genotype nonBB* (lowest response),−4.36
same,mean of change in PANSS-GP,SNP_A-2007721 (LOC58486) genotype A_A,−2.52
same,mean of change in PANSS-GP,SNP_A-2007721 (LOC58486) genotype A_B** (highest response),−10.51
same,mean of change in PANSS-GP,SNP_A-2007721 (LOC58486) genotype B_B,−3.91
same,mean of change in PANSS-GP,SNP_A-2007721 (LOC58486) genotype nonAB* (lowest response),−3.90
same,mean of change in PANSS-GP,SNP_A-2044214 (HNT) genotype A_A,−6.83
same,mean of change in PANSS-GP,SNP_A-2044214 (HNT) genotype A_B* (lowest response),−3.34
same,mean of change in PANSS-GP,SNP_A-2044214 (HNT) genotype B_B,−5.68
same,mean of change in PANSS-GP,SNP_A-2044214 (HNT) genotype nonAB** (highest response),−6.43
same,mean of change in PANSS-GP,SNP_A-2048427 (NPAS3) genotype A_A,−9.50
same,mean of change in PANSS-GP,SNP_A-2048427 (NPAS3) genotype A_B,−9.79
same,mean of change in PANSS-GP,SNP_A-2048427 (NPAS3) genotype B_B* (lowest response),−3.44
same,mean of change in PANSS-GP,SNP_A-2048427 (NPAS3) genotype nonBB** (highest response),−9.75
same,mean of change in PANSS-GP,SNP_A-2070454 (NKX2-5) genotype A_A,−3.91
same,mean of change in PANSS-GP,SNP_A-2070454 (NKX2-5) genotype A_B,−4.34
same,mean of change in PANSS-GP,SNP_A-2070454 (NKX2-5) genotype B_B** (highest response),−8.12
same,mean of change in PANSS-GP,SNP_A-2070454 (NKX2-5) genotype nonBB* (lowest response),−4.20
same,mean of change in PANSS-GP,SNP_A-2076797 (NUDT9P1) genotype A_A,−2.80
same,mean of change in PANSS-GP,SNP_A-2076797 (NUDT9P1) genotype A_B** (highest response),−8.23
same,mean of change in PANSS-GP,SNP_A-2076797 (NUDT9P1) genotype B_B,−2.42
same,mean of change in PANSS-GP,SNP_A-2076797 (NUDT9P1) genotype nonAB* (lowest response),−2.62
same,mean of change in PANSS-GP,SNP_A-2103099 (HTR1A) genotype A_A,−7.79
same,mean of change in PANSS-GP,SNP_A-2103099 (HTR1A) genotype A_B* (lowest response),−3.42
same,mean of change in PANSS-GP,SNP_A-2103099 (HTR1A) genotype B_B,−6.80
same,mean of change in PANSS-GP,SNP_A-2103099 (HTR1A) genotype nonAB** (highest response),−7.16
same,mean of change in PANSS-GP,SNP_A-2120958 genotype A_A,−5.90
same,mean of change in PANSS-GP,SNP_A-2120958 genotype A_B,−6.13
same,mean of change in PANSS-GP,SNP_A-2120958 genotype B_B* (lowest response),1.80
same,mean of change in PANSS-GP,SNP_A-2120958 genotype nonBB** (highest response),−5.99
same,mean of change in PANSS-GP,SNP_A-2170121 (C6) genotype A_A,−3.40
same,mean of change in PANSS-GP,SNP_A-2170121 (C6) genotype A_B** (highest response),−10.21
same,mean of change in PANSS-GP,SNP_A-2170121 (C6) genotype B_B,−5.25
same,mean of change in PANSS-GP,SNP_A-2170121 (C6) genotype nonAB* (lowest response),−3.57
same,mean of change in PANSS-GP,SNP_A-2274533 (LZTS1) genotype A_A** (highest response),−7.04
same,mean of change in PANSS-GP,SNP_A-2274533 (LZTS1) genotype A_B,−2.16
same,mean of change in PANSS-GP,SNP_A-2274533 (LZTS1) genotype B_B,−2.33
same,mean of change in PANSS-GP,SNP_A-2274533 (LZTS1) genotype nonAA* (lowest response),−2.20
same,mean of change in PANSS-GP,SNP_A-2283283 (XKR4) genotype A_A* (lowest response),−0.58
same,mean of change in PANSS-GP,SNP_A-2283283 (XKR4) genotype A_B,−6.49
same,mean of change in PANSS-GP,SNP_A-2283283 (XKR4) genotype B_B,−6.90
same,mean of change in PANSS-GP,SNP_A-2283283 (XKR4) genotype nonAA** (highest response),−6.66
same,mean of change in PANSS-GP,SNP_A-2284243 (GRIA4) genotype A_A,−6.57
same,mean of change in PANSS-GP,SNP_A-2284243 (GRIA4) genotype A_B,−6.77
same,mean of change in PANSS-GP,SNP_A-2284243 (GRIA4) genotype B_B* (lowest response),−0.77
same,mean of change in PANSS-GP,SNP_A-2284243 (GRIA4) genotype nonBB** (highest response),−6.69
same,mean of change in PANSS-GP,SNP_A-4204396 (CDH13) genotype A_A,−5.87
same,mean of change in PANSS-GP,SNP_A-4204396 (CDH13) genotype A_B,−5.99
same,mean of change in PANSS-GP,SNP_A-4204396 (CDH13) genotype B_B* (lowest response),1.39
same,mean of change in PANSS-GP,SNP_A-4204396 (CDH13) genotype nonBB** (highest response),−5.91
same,mean of change in PANSS-GP,SNP_A-4212785 (PPP1R3B) genotype A_A* (lowest response),15.61
same,mean of change in PANSS-GP,SNP_A-4212785 (PPP1R3B) genotype A_B,−5.99
same,mean of change in PANSS-GP,SNP_A-4212785 (PPP1R3B) genotype B_B,−5.84
same,mean of change in PANSS-GP,SNP_A-4212785 (PPP1R3B) genotype nonAA** (highest response),−5.89
same,mean of change in PANSS-GP,SNP_A-4230979 (ASB3) genotype A_A,−1.74
same,mean of change in PANSS-GP,SNP_A-4230979 (ASB3) genotype A_B,−3.42
same,mean of change in PANSS-GP,SNP_A-4230979 (ASB3) genotype B_B** (highest response),−8.85
same,mean of change in PANSS-GP,SNP_A-4230979 (ASB3) genotype nonBB* (lowest response),−3.07
same,mean of change in PANSS-GP,SNP_A-4256833 (MLCK) genotype A_A,−7.14
same,mean of change in PANSS-GP,SNP_A-4256833 (MLCK) genotype A_B* (lowest response),−2.62
same,mean of change in PANSS-GP,SNP_A-4256833 (MLCK) genotype B_B,−6.45
same,mean of change in PANSS-GP,SNP_A-4256833 (MLCK) genotype nonAB** (highest response),−6.49
same,mean of change in PANSS-GP,SNP_A-4258279 (RRM1) genotype A_A,−4.64
same,mean of change in PANSS-GP,SNP_A-4258279 (RRM1) genotype A_B* (lowest response),−0.66
same,mean of change in PANSS-GP,SNP_A-4258279 (RRM1) genotype B_B,−6.29
same,mean of change in PANSS-GP,SNP_A-4258279 (RRM1) genotype nonAB** (highest response),−6.27
